From a melting point compilation (Tetko et al.; mined from patent text by program, amines drawn as free bases though some values may be those of a salt) come the findings set out here.

As usually defined, the melting point is the temperature of the solid-liquid transition. In the case of `CC(C)(CO)n1c(Cc2ccccc2)nc2c(Cl)nc3ccccc3c21`, the melting point lay in the range of 262 to 266 °C.

For the molecule `Cc1cccc(OC2SCC(O)C(O)C2O)n1` (stereo not drawn), the melting point was 54 °C.

The molecule `CCOc1cc(N(CC)CC)ccc1C=O` gave a melting point of 58 to 59 °C.

As to `CC=CN(C=CC)c1ccc2[nH]c3cnc(C(=O)OCC)cc3c2c1`, the melting point lay within 235 to 238 °C.

In turn, `CCCCCCOc1ccc(C(=O)Cl)cc1` had a melting point of 90 to 93 °C.

Consider `Cc1c(-c2cc(C(F)(F)F)cc(C(F)(F)F)c2)ccc2nc(N=CN(C)C)nc(N=CN(C)C)c12`, for which the melting point lay in the range of 208 to 210 °C.

`CCSc1noc(-c2ccc(NS(C)(=O)=O)c(Oc3ccc(F)cc3F)c2)n1` came in with a melting point of 116 to 119 °C.

`CC(=CS(N)(=O)=O)c1ccccc1` gave a melting point of 101 to 102 °C.

Take `CC(C)=CCOc1ccc(C(=O)C=Cc2ccc(C(F)(F)F)cc2)c(O)c1`: the melting point fell in the range of 122 to 123 °C.

Turning to `OCCNc1cc(Nc2ccc(N3CCOCC3)cc2)ncn1`, the melting point was 204 to 207 °C.

Turning to `CCCc1nc2c(N)nc3cc(Oc4ccc(C#N)cc4)ccc3c2n1CC(C)C`, the melting point lay within 223 to 225 °C.

The molecule `COC12CC(C)(c3nnc(-c4cncc(Br)c4)o3)CN(C)C1Cc1cn(C)c3cccc2c13` (stereo not drawn) registered a melting point of 171 to 174 °C.

`COc1ccc(C(=CNC(=O)c2sc3ccc(C(F)(F)F)cc3c2O)c2ccc(OC)cc2)cc1` had a melting point of 178 to 183 °C.

On to `O=C1OCCN1CCCn1ccnc1[N+](=O)[O-]`, for which the melting point lay within 89 to 91 °C.

In the case of `COc1cc2c(cc1OC)CCCC(C(=O)N1CCN(Cc3cc(OC)c(OC)c(OC)c3)C(C(=O)O)C1)=C2` (stereo not drawn), the melting point is 142 to 144 °C.

`Cc1cc(C)c2c(n1)Nc1cc(C)c(C)cc1N(C)C2=O` displayed a melting point of 225 to 227 °C.

For `CCCn1c(=O)c2c(nc(C=Cc3cc(OC)c(OC)cc3S(=O)(=O)N3CCCCC3)n2C)n(CCC)c1=O`, the melting point was 266 to 268 °C.

`CCCCNc1cncc(C#N)c1`: the melting point was found to be 73 °C.

As for `Nc1nc(-c2ccc(CN3CCCCCC3)s2)n[nH]1`, the melting point is 160 to 161 °C.

`CCCOC(C)c1ccc(C(=O)O)cc1` (single isomer, unassigned; (+)) had a melting point of 56 to 58 °C.

`Cc1occc1C(=S)Nc1ccc(Cl)c(C=NN2CCOCC2)c1` yielded a melting point of 142 to 143 °C.

As to `O=C(O)Cc1ccc2c(c1)C(=O)CC2`, the melting point lay in the range of 133 to 135 °C.

`CCCCNC(=O)CC(F)=C(F)F` had a melting point of 34 to 36 °C.

With `COCOc1cc(Cl)ccc1-c1cc(-c2cccc(C(=O)NCCCn3ccnc3)c2)c(C#N)c(NC(=O)c2ccccc2OC)n1`, the melting point fell in the range of 100 to 101 °C.

As for `Cc1cc(OC23CC4CC(CC(C4)C2)C3)ccc1N`, the melting point is 143 to 145 °C.

As to `CCn1c2ccccc2c2sccc(=O)c21`, the melting point lay in the range of 103 to 104 °C.

Molecule `COCCOc1ccc(/C=C/C(=O)O)c(Oc2ncc(Cl)cc2Cl)c1` gave a melting point of 182 to 184 °C.

In turn, `CCCS(=O)(=O)c1c(S(N)(=O)=O)c(C)nn1C` yielded a melting point of 127 to 129 °C.

`CNC(NCCNCc1ccc(CN(C(C)C)C(C)C)o1)=C(C#N)C#N`: the melting point fell in the range of 79 to 80 °C.

In the case of `CC1CCc2c(N3CCC(O)CC3)c(F)cc3c(=O)c(C(=O)O)cn1c23` (stereo not drawn), the melting point was in the range of 244 to 247 °C.

`CC(C)(C)OC(=O)N1CCn2c(Br)c(-c3cccc(F)c3)c(C(=O)n3ccnc3)c2C1` returned a melting point of 168 to 169 °C.

Molecule `CC(=O)C1(Nc2ccc(C)cc2)CCN(CCc2ccccc2)CC1` showed a melting point of 134 °C.

Regarding `Clc1ccc2c(C3CCN(CCCCC4Cc5ccccc5C4)CC3)c[nH]c2c1`, the melting point lay in the range of 139 to 140 °C.

`Cc1cc(-n2c(=O)cc(C(F)(F)F)n(C)c2=O)c(F)cc1C#N`: the melting point amounted to 186 °C.

Molecule `CCCOc1ccccc1-c1nc(-c2nnn[nH]2)cc(=O)[nH]1` returned a melting point of 219 to 221 °C.

In turn, `O=c1[nH]c2ncc(-c3ccc(-c4n[nH]c(C(F)(F)F)n4)cc3)nc2n1CC1CCCCC1` registered a melting point of 303 to 305 °C.

`Cn1nnnc1-c1cn(C)c2cc(S(C)=O)ccc2c1=O` (stereo not drawn): the melting point was in the range of 237 to 240 °C.

On to `CCCCCCS(=O)(=O)c1nnnn1CC(=O)OCC`, for which the melting point was 40 to 42 °C.

On to `CCCCCCc1cc2c(s1)NC(=O)C(C)N=C2c1ccccc1C` (stereo not drawn), for which the melting point was 173 to 175 °C.

`COC(=O)C1=C(C)NC(C)=C(c2nc(N(C)Cc3ccccc3)no2)C1c1cccc([N+](=O)[O-])c1` (stereo not drawn) displayed a melting point of 182 to 184 °C.

Turning to `Nc1ncc(Oc2ccc(Cl)cc2)c(N[C@H]2CC[C@H](O)CC2)n1`, the melting point was 154 to 155 °C.

`OCCCN1CC=C(c2cn(-c3ccc(F)cc3)c3ccc(C(F)(F)F)cc23)CC1` yielded a melting point of 173 to 175 °C.

On to `CC(C)n1c(=O)[nH]c2cc(-c3ncc(C(F)(F)F)cc3Cl)ccc21`, for which the melting point was 192 to 193 °C.

Turning to `CCc1nc2c(C)c(NS(C)(=O)=O)cnc2n1-c1ccc(CCNC(=O)NS(=O)(=O)c2ccc(C)cc2)cc1`, the melting point stood at 166 °C.

`Cc1c(N2CCC(N(C)C)C(C)(C)C2)c(F)cc2c(=O)c(C(=O)O)cn(C3CC3)c12` (stereo not drawn) registered a melting point of 209 to 210 °C.

`CCCCCN1C(=O)C(CO)(c2ccc3c(c2)OCO3)c2ccccc21` (stereo not drawn) showed a melting point of 110 to 113 °C.

`CCCn1nc(C(=O)OCC)cc1CC(C)(C)NC(=O)OC(C)(C)C`: the melting point lay within 109 to 111 °C.

`Clc1nc2c(c(N3CCCC3)n1)SCCC2` had a melting point of 76 °C.

Molecule `C=CCN(C1=NCCN1C)c1c(Cl)cccc1Cl` showed a melting point of 59 to 61 °C.

In turn, `CC[C@H]1CN(c2c(F)cc3c(=O)c(C(=O)O)cn4c3c2OC[C@@H]4C)C[C@H]1NC` displayed a melting point of 211 to 213 °C.

`O=C(Nc1cc2nc(-c3ccc(C(=O)C4CCCCCC4)cc3)[nH]c2cn1)C1CCCCCC1` gave a melting point of 194 °C.

The molecule `CON=C(C#CCN1CCOCC1)C(=O)OC` displayed a melting point of 43 to 45 °C.

Molecule `COc1ccc(C(C)C)cc1-c1cc(C(=O)NC2CCN(C(=O)OC(C)(C)C)C2)c(OCc2ccccc2)cc1OCc1ccccc1` (stereo not drawn) yielded a melting point of 151 to 154 °C.

The molecule `Cc1ccc(S(=O)(=O)OCCc2ccccc2Br)cc1` gave a melting point of 39 to 39.5 °C.

For `CCC(C)Oc1ccccc1-c1nc2ccc(C(=O)O)cc2c(=O)[nH]1` (stereo not drawn), the melting point lay in the range of 242 to 244 °C.

As for `CCCCCCCCCCCCC1CC(=O)N(NC(=O)CCc2cc(C(C)(C)C)c(O)c(C(C)(C)C)c2)C1=O` (stereo not drawn), the melting point lay within 55 to 60 °C.

Turning to `CC(C)Cn1nc(-c2ccccc2)cc(COS(C)(=O)=O)c1=O`, the melting point came to 130 °C.

`COCCOc1ccc(CC(OC)C(=O)O)c(Oc2ncc(C(F)(F)F)cc2Cl)c1` (stereo not drawn) had a melting point of 93 to 96 °C.

For `CCc1cc(C)c2c(-c3cccc(Cl)c3)cc(=S)n(C)c2n1`, the melting point lay within 131 to 133 °C.

The molecule `CNC(=NC#N)NCCSCc1cccc(NC(N)=NCC(F)(F)F)n1` displayed a melting point of 137 to 140 °C.

In the case of `NC(=S)Nc1cnccn1`, the melting point was 234 to 235 °C.

`CNC(=O)c1sc2cnccc2c1Oc1ccc(CO)cc1` showed a melting point of 195 to 196 °C.

`Nc1nc(Cl)cc(Oc2ccc3c(c2)OCCN3C(=O)OCc2ccccc2)n1` showed a melting point of 161 to 163 °C.

For `CCCCc1nc(C(O)CC)c(C(N)=O)n1Cc1ccc(-c2ccccc2C(=O)O)cc1` (stereo not drawn), the melting point is over 120 °C.

As to `CCCCCCCCC(=O)NCc1ccc(C#N)cc1`, the melting point was 185 to 187 °C.

For the molecule `Cc1cc(C)c(Nc2nc(C)ccc2S(=O)(=O)c2ccc(OCCCCC#N)cc2)c(C)c1`, the melting point was in the range of 115 to 116 °C.

With `CN(C)C(=O)c1ccccc1OCC(=O)NC(C)(C)c1ccc(Cl)cc1`, the melting point was 127 to 129 °C.

`COc1ccc(COc2ccc([N+](=O)[O-])cc2)cc1` displayed a melting point of 122 to 124 °C.

The molecule `Cn1c(=O)c(-c2ccc(Cl)cc2Cl)cc2c3cc(-c4coc(N)n4)ccc3n(C)c21` had a melting point of 295 to 297 °C.

Regarding `CNc1cc(F)ccc1C(=O)Cc1nnnn1C`, the melting point was 132 to 134 °C.

`Cc1cc(-c2ccc3c(=O)c(C(=O)O)cn(C4CC4)c3c2C)cnc1CO` gave a melting point of 225 to 226 °C.

`CC(=O)c1cn(Cc2ccc(F)cc2)c2ccccc2c1=O` showed a melting point of 185 to 187 °C.

Consider `O=C(O)COc1ccc2c(-c3ccc(Cl)c(Cl)c3)noc2c1Cl`, for which the melting point lay in the range of 222 to 224 °C.

Molecule `CN1CC(CN2CC(=O)NC2=O)CC2c3cccc4[nH]cc(c34)CC21` (stereo not drawn) yielded a melting point of 199 to 201 °C.

`COc1ccc(S(=O)(=O)O)cc1OC(=O)c1ccccc1`: the melting point lay in the range of 139 to 140 °C.

`Cc1coc(-c2ccc3c(c2)c2cc(-c4ccc(Cl)cc4Cl)c(=O)n(C)c2n3C)n1` showed a melting point of 258 to 261 °C.

For `CCOC(=O)C(=NOCc1ccc(OCc2nc(-c3ccccc3)oc2C)cc1)c1ccc(OC)cc1`, the melting point is 102 to 103 °C.

The molecule `COc1ccc(C(=O)CC(=O)c2ccc(O)cc2O)cc1OC` showed a melting point of 263 to 265 °C.

`CCOc1nccnn1` returned a melting point of 95 to 99 °C.

Take `O=C1C=CC2=CN=C(Cc3ccccc3)N3CCC(=C23)N1`: the melting point was 226 to 228 °C.

Take `O=C(O)c1cc(C(c2cc(F)ccc2F)S(=O)(=O)c2ccc(Cl)cc2)c(Cl)cn1` (stereo not drawn): the melting point lay in the range of 94 to 96 °C.

`CC(O)CN(CC(C)O)c1cc(C(C)(C)C)cc(C(C)(C)C)c1` (stereo not drawn) came in with a melting point of 139 °C.

Consider `Cc1cc(C)c(Cc2nc(C)nc(O)c2C)c(C)c1`, for which the melting point is 260 to 262 °C.

In turn, `CC(C)(C)NS(=O)(=O)c1c(C(=O)O)sc2ccccc12` displayed a melting point of 180 °C.

With `Cc1c(-c2ccccc2)nc(C(C)C)c(CO)c1-c1ccc(F)cc1`, the melting point lay within 182 to 184 °C.

On to `C[C@H](N)C(=O)Nn1cccc1`, for which the melting point lay within 63 to 66 °C.

Take `CC(=CCCC(C)C1CCC2(C)C3=CCC4C(C)(CCC5(OCCO5)C4(C)C)C3=CCC12C)CO` (stereo not drawn): the melting point was 165 to 168 °C.

Consider `CCOC(=O)COc1ccccc1Cn1c(-c2ccc(C(F)(F)F)cc2)c(C)c2cc(OCc3ccccc3)ccc21`, for which the melting point turned out to be 221 °C.
